Assay results reported in patent US6951869B2, “Use of leukotriene receptor antagonist for treatment of scarring” (priority 2002, dated 2005).

What was measured:
[1] = 20 mg twice daily accepted dosage, adults and children ages 12 and up; cited from earlier work
mastectomy scar = test: Effect on mastectomy scar in a patient (case report); type: in vivo, human; conditions: Example IV patient, scar extremely hard and firm before therapy; 20 mg twice a day
Excerpt: Person was diagnosed with infiltrating ductal carcinoma in the left breast in June of 2000. Patient underwent a modified radical mastectomy with immediate reconstruction with placement of a tissue expander. […] Postoperatively, patient received chemotherapy (ADRIAMYCIN®, Cyclophosphamide, TAXOL®) and was placed on a study protocol for HERCEPTIN®. In February of 2001, patient underwent exchange of the tissue expander for a […] textured saline implant which was placed submuscularly. Six weeks following the implant placement, patient received local radiation therapy to the left breast of which they received a total of 5000 rads. Immediately following the radiation therapy, patient noted redness and blistering of the skin surrounding the left breast. Three weeks post-radiation therapy, patient noted hardening of the left breast mound, which quickly progressed to a Bakers Class IV capsular contracture by the fifth week following radiation therapy. […] Patient was then placed on ACCOLATE® therapy at 20 mg twice a day. […] Additionally, patient noted a significant improvement in the mastectomy scar which had been extremely hard and firm prior to the ACCOLATE® therapy.

capsular contracture = test: Treatment of capsular contracture after breast implantation in patients (case reports, Bakers Class); type: in vivo, human
Experimental: The breasts remained soft until 4 years and 2 months following the operation. The left breast then developed Bakers Class III capsular contracture, but the right breast remained soft. Patient was then placed on ACCOLATE® 20 mg, twice daily. One month following the prescription of ACCOLATE®, the left breast was softer (Bakers Class II) and three months later, it was even softer (Bakers Class I). Four months following ACCOLATE® therapy, both breasts were soft again (Bakers Class I). […] Two weeks following the operation, patient developed bilateral Bakers Class III capsular contractures. […] Three months following the ACCOLATE® therapy, both breasts had achieved Bakers Class I status and at 8 months post-ACCOLATE® therapy, both breasts remained soft and at Bakers Class I level. […] Twenty days following the second operation, patient noted an increasing firmness of both breasts and breast massage and vitamin E therapy was continued. However, four months following the second operation, patient developed a severe capsular contracture in the left breast (Bakers Class IV). The right breast, however, remained soft (Bakers Class I). Patient was placed on ACCOLATE® at 20 mg twice daily. […] person was diagnosed with infiltrating ductal carcinoma in the left breast in June of 2000. Patient underwent a modified radical mastectomy with immediate reconstruction with placement of a tissue expander. […] Postoperatively, patient received chemotherapy (ADRIAMYCIN®, Cyclophosphamide, TAXOL®) and was placed on a study protocol for HERCEPTIN®. In February of 2001, patient underwent exchange of the tissue expander for a […] textured saline implant which was placed submuscularly. Six weeks following the implant placement, patient received local radiation therapy to the left breast of which they received a total of 5000 rads. Immediately following the radiation therapy, patient noted redness and blistering of the skin surrounding the left breast. Three weeks post-radiation therapy, patient noted hardening of the left breast mound, which quickly progressed to a Bakers Class IV capsular contracture by the fifth week following radiation therapy. […] Patient was then placed on ACCOLATE® therapy at 20 mg twice a day. […] Additionally, patient noted a significant improvement in the mastectomy scar which had been extremely hard and firm prior to the ACCOLATE® therapy. […] person underwent augmentation mammoplasty in 1986. 250 cc silicon implants were placed on each side above the muscle. Postoperatively the subject had no complications. The breasts remained soft for 5 years. In 1991, subject noted increasing firmness in both breasts. Subject received no treatment at that time. 17 years after surgery, subject was presented for possible surgical intervention. Upon examination, subject was noted to have Bakers Class IV capsular contractures bilaterally and was placed on Zafirlukast (Accolate®) 20 mg two times daily. […] Three months post Zafirlukast (Accolate®) therapy, subject went progressed a Bakers Class IV to a Bakers Class III on the right and a Bakers Class II on the left.

[2] = Example IV patient, 20 mg twice a day, after one month

Row | Compound | Reported side effect: headaches [1] [%] | Reported side effect: nausea [1] [%] | Mastectomy scar appearance and hardness (mastectomy scar) | Softness of breast implant (capsular contracture; Example IV patient, post-radiation Bakers Class IV before therapy, 20 mg twice a day, two weeks) | Bakers Class of capsular contracture, left breast implant (capsular contracture; [2]) | Pain and distortion (capsular contracture; [2]) | Softness of both breasts (capsular contracture; Example V patient, bilateral Bakers Class IV before therapy, 20 mg two times daily, 3 weeks) | Relief of capsular contracture (capsular contracture; Example IV patient, Bakers Class IV, given with breast massage, before ACCOLATE therapy)
1 | COc1cc(C(=O)NS(=O)(=O)c2ccccc2C)ccc1Cc1cn(C)c2ccc(NC(=O)OC3CCCC3)cc12 [ACCOLATE®] | 12.9 | 3.1 | both softer and less noticeable | noticeable softening | approaching a Bakers Class I softness | completely gone | some improvement | 
2 | vitamin E |  |  |  |  |  |  |  | without relief
